Experimental findings from ChEMBL document CHEMBL1156847, “Structure-based design of a thiazolidinedione which targets the mitochondrial protein mitoNEET” (Bioorg Med Chem Lett, 2010) are described below.

For one test, the species on record is Rattus norvegicus. Description: Reduction in state 3 respiration in Sprague-Dawley rat mitochondria. Format: functional. The arrangement: scale not given: the % may be the effect or the level left.
In test [1] the test system is SH-SY5Y. Description: Neuroprotective activity against rotenone-induced cell death in human SH-SY5Y assessed as reduction in LDH release pretreated 1 hrs before rotenone challenge measured after 24 hrs. Format: functional, cell-based.
Test [2] deals with SH-SY5Y. Description: Neuroprotective activity against rotenone-induced cell death in human SH-SY5Y assessed as reduction in LDH release pretreated 1 hrs before rotenone challenge measured after 24 hrs relative to control. Format: functional. Also on record: scale not given: the % may be the effect or the level left. On the technique in general: LDH leaks from cells whose membrane has failed.

The nature of test [3]: Inhibition of respiration in Sprague-Dawley rat mitochondria assessed as reduction in respiratory control rate. Type of test: functional.
Test [4] addresses T1, CDGSH iron-sulfur domain-containing protein 1 (Rattus norvegicus, UniProt B0K020).
T1 sequence (B0K020 whole entry): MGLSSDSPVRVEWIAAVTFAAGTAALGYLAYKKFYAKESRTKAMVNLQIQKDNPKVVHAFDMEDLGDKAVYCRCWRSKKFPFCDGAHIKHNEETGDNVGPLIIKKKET
Description: Displacement of [3H]rosiglitazone from rat liver mitochondrial mitoNEET by scintillation counting.

What is called IC50 is the midpoint of a concentration-inhibition curve. For `CC(C)(C)c1cc(CC2SC(=O)N=C2O)cc(C(C)(C)C)c1O` (configuration not stated), the Activity was 45% in the test listed under Rattus norvegicus, “Dose-dependent effect” in the test with SH-SY5Y [1] and 40% in the test with SH-SY5Y [2]. Also, the IC50 in test [3] is 2.4 µM; in test [4], 0.9 µM.
`CCc1ccc(CCOc2ccc(CC3SC(=O)NC3=O)cc2)nc1` (configuration not stated) [PIOGLITAZONE] came in with an IC50 in test [4] of 1 µM.
The molecule `CN(CCOc1ccc(CC2SC(=O)NC2=O)cc1)c1ccccn1` (configuration not stated) [ROSIGLITAZONE] displayed an IC50 in test [4] of 1.1 µM.
